Experiment [1] deals with mTORC2 (pAKT S473) in PC3 cells. Nature of the experiment: mTOR target engagement assay, immunofluorescent cell-based, mTORC2 activity by reduction of pAKT S473. The settings on record: Homo sapiens, PC-3, ninety minutes at 37° C., immunofluorescence. The procedure:
(§1) The target engagement of mTOR kinase inhibitors was evaluated using an immunofluorescent cell-based assay. In this assay, inhibition of mTORC1 activity was measured by the reduction in the level of phosphorylated 4E-BP1Thr37/46 (p4E-BP1 Thr37/46), and inhibition of mTORC2 activity was measured by the reduction of phosphorylated AKTSer473 (pAKT S473).
(§2) PC3 cells (prostate tumor cell-line that contains a mutation in the tumor suppressor PTEN, that promotes the phosphorylation and activation of AKT and 4E-BP 1) were used in the immunofluorescence assay. PC3 cells were seeded on 384 well plates (black clear bottom, Matrix #4332) overnight. PC3 cells were then treated with 40 μl of the serially diluted test compounds (in 5% fetal bovine serum, F12 medium containing 0.25% DMSO) for ninety minutes at 37° C. The test compound solution was removed, and the plates were washed gently two times with 25 μl phosphate buffered saline (PBS). The cells were fixed by adding 25 μl of Prefer reagent (from Anatech LTD, Cat#414, a glyoxal fixative for fixing proteins within a cell) for sixty minutes followed by three washes with PBS. 5% Goat serum in PBS/0.3% Triton was used to block non-specific binding (60 minutes).
(§3) The primary antibodies targeting pAKT S473 and p4E-BP1 Thr37/46 were diluted into PBS/0.3% Triton and incubated with the cells overnight at 4° C. The antibodies targeting pAKTS473 (Cat#4085, Cell signaling) and p4E-BP1 Thr37/46 (Cat#2855, Cell signaling) were used at a 1:100 dilution. Plates were washed three times with PBS/0.1% Tween 20 before adding the secondary antibody at a 1:200 dilution. (goat anti-rabbit containing a fluorescent label, Alexa Fluor 488, Cat# A11008, Invitrogen) in PBS/0.3% Triton for 60 minutes.
(§4) Finally, the plates were washed three times with PBS/0.1% Tween 20 and the fluorescent intensity was read using an Analyst HT from Molecular Devices. The fluorescent intensity values from the serially diluted compound treatment group were analyzed using the Xlfit 4 program ([…]) (Formula 205: Y=Bottom+(Top-Bottom)/(1+(IC50/X)^Hillslope) to generate the IC50 value. Where Top is the maximum signal without Compound (+DMSO only) and Bottom represents maximum inhibition. Y is the fluorescence at some compound concentration. The control used to determine the fluorescent intensities for 100% pAKT S473 or 100% phosphorylated p4E-BP1 Thr37/46 were measured from untreated wells that contained only DMSO, instead of test compound.

For experiment [2], the system named is mTORC1 (p4E-BP1 Thr37/46) in PC3 cells. Put plainly: mTOR target engagement assay, immunofluorescent cell-based, mTORC1 activity by reduction of p4E-BP1 Thr37/46. The settings on record: Homo sapiens, PC-3, ninety minutes at 37° C., immunofluorescence. How it is done:
as §1, §2, §3, §4

As for `CC(C)(O)c1ccc(-c2cnn3c2nc([C@@H]2C[C@H]4CC[C@@H](C2)N4C(=O)c2nnc[nH]2)c2cc[nH]c23)cn1` [Example 3, ((1R,3s,5S)-3-(3-(6-(2-hydroxypropan-2-yl)pyridin-3-yl)-8H-pyrazolo[1,5-a]pyrrolo[3,2-e]pyrimidin-5-yl)-8-azabicyclo[3.2.1]octan-8-yl)(1H-1,2,4-triazol-3-yl)methanone], the IC50 in experiment [1] and in experiment [2] was 100 to 1000 nM in each case.
As to `O=C(c1nnc[nH]1)N1[C@@H]2CC[C@H]1C[C@H](c1nc3c(-c4ccc(-c5ncc[nH]5)nc4)cnn3c3[nH]ccc13)C2` [Example 6, ((1R,3s,5S)-3-(3-(6-(1H-imidazol-2-yl)pyridin-3-yl)-8H-pyrazolo[1,5-a]pyrrolo[3,2-e]pyrimidin-5-yl)-8-azabicyclo[3.2.1]octan-8-yl)(4H-1,2,4-triazol-3-yl)methanone], the IC50 in experiment [1] and in experiment [2] was 1 to 100 nM throughout.
Consider `O=C(c1nnc[nH]1)N1[C@@H]2CC[C@H]1C[C@H](c1nc3c(-c4ccc(-c5ccccc5)nc4)cnn3c3[nH]ccc13)C2` [Example 2, ((1R,3s,5S)-3-(3-(6-phenylpyridin-3-yl)-8H-pyrazolo[1,5-a]pyrrolo[3,2-e]pyrimidin-5-yl)-8-azabicyclo[3.2.1]octan-8-yl)(4H-1,2,4-triazol-3-yl)methanone], for which the IC50 in experiment [1] and in experiment [2] was 1 to 100 nM in each case.
With `Cc1n[nH]c2c1c([C@@H]1C[C@H]3CC[C@@H](C1)N3C(=O)c1nnc[nH]1)nc1c(-c3ccc(-c4ccccc4)nc3)cnn12` [Example 1, ((1R,3s,5S)-3-(3-methyl-6-(6-phenylpyridin-3-yl)-1H-dipyrazolo[1,5-a:4′,3′-e]pyrimidin-4-yl)-8-azabicyclo[3.2.1]octan-8-yl)(4H-1,2,4-triazol-3-yl)methanone], the IC50 in experiment [1] is 1 to 100 nM; in experiment [2], 100 to 1000 nM.
Consider `O=C(CO)N1[C@@H]2CC[C@H]1C[C@H](c1nc3c(-c4ccc(-c5ncc[nH]5)nc4)cnn3c3[nH]ccc13)C2` [Example 5, 1-((1R,3s,5S)-3-(3-(6-(1H-imidazol-2-yl)pyridin-3-yl)-8H-pyrazolo[1,5-a]pyrrolo[3,2-e]pyrimidin-5-yl)-8-azabicyclo[3.2.1]octan-8-yl)-2-hydroxyethanone], for which the values for the IC50 in experiment [1] and in experiment [2] were 1 to 100 nM and 100 to 1000 nM, respectively.
The corresponding values for `CC(C)(O)c1ccc(-c2cnn3c2nc([C@@H]2C[C@H]4CC[C@@H](C2)N4C(=O)CO)c2cc[nH]c23)cn1` [Example 4, 2-hydroxy-1-((1R,3s,5S)-3-(3-(6-(2-hydroxypropan-2-yl)pyridin-3-yl)-8H-pyrazolo[1,5-a]pyrrolo[3,2-e]pyrimidin-5-yl)-8-azabicyclo[3.2.1]octan-8-yl)ethanone] are 1000 to 2000 nM and 100 to 1000 nM.

In general, IC50 refers to the point on the concentration scale where inhibition reaches its midpoint. A higher IC50 goes with weaker potency in that assay.

The record behind these values is patent US8901142B2, “Fused tricyclic compounds as mTOR inhibitors” (Merck Sharp & Dohme Corp., priority 2011, dated 2014).
